Source: patent EP4624469A1 (Jiangsu Hengrui Pharmaceuticals Co., Ltd., priority 2022, dated 2024)
Like-named read-outs stand apart in the source and are kept apart here.

Columns and labels:
miR-124 = assay: Up-regulation of miR-124 in CD3/CD28 antibody-activated T cells (SYBR green fluorescence quantitative PCR); format: cell-based; settings: T-cell, 72 h; activated human T cells, final compound concentration 1 µM, 3 days; relative to DMSO, U6 internal reference; read-out: up-regulated miR-124 (relative expression level)
Method: The effect of the compound on miR-124 expression levels was assessed in CD3/CD28 antibody-activated T cells. After the activated T cells were treated with the compound, the total cellular RNA was extracted, the cDNA obtained from reverse transcription was used as a template, and quantification was performed by using an SYBR green fluorescence quantitative PCR method and a specific miR-124 primer.
Isolation of T cells: The purchased human peripheral blood mononuclear cells (PBMCs) were counted, filtered, and then washed once with a separation buffer (PBS, pH 7.4, containing 0.5% BSA and 2 mM EDTA), and the supernatant was discarded. Various components were added in such a manner that for every 1 × 10^7 cells, 40 µL of buffer and 10 µL of pan T Cell Biotin-Antibody Cocktail were added. The pellets were resuspended and well mixed, and the suspension was incubated in a refrigerator at 4 °C for 5 min. After the incubation was completed, various components were added in such a manner that for every 1 × 10^7 cells, 30 µL of buffer and 20 µL of Pan T Cell MicroBeads Cocktail were added. After thorough mixing, the mixture was incubated in a refrigerator at 4 °C for 10 min. […] The cells were counted and added at a density of 1 × 10^6 cells/mL to an RPMI1640 culture medium (complete culture medium) containing 10% FBS and 40 U/mL IL-2, and the mixture was stored on ice for later use. […]

[1] = Long-term accelerated stability tests; format: physicochemical; settings: for Purity (%): Initial; for Crystal form: up to 6 months
Text: Table 12. The long-term accelerated stability of the crystal form

[2] = Influencing factors stability test (light exposure, high temperature, high humidity); format: physicochemical; settings: for remaining at 120 h / remaining at 240 h / remaining at 720 h: solid storage, read-out: Purity%
Text: Table 11. The influencing factor stability of the crystal form

[3] = DVS (dynamic vapor sorption) hygroscopicity testing; format: physicochemical
Method: DVS refers to dynamic vapor sorption: Surface Measurement Systems instrinsic was adopted; the humidity started at 50%, the humidity range of the investigation was 0%-95%, and the humidity was increased in increments of 10%; the criterion was that each gradient mass change dM/dT is ≤ 0.002%, TMAX 360 min, two cycles.

[4] = Light exposure (4500 Lux), 5 days
[5] = Light exposure (4500 Lux), 10 days
[6] = Light exposure (4500 Lux), 30 days

FC1(F)Oc2ccc(Nc3ccc4cccc(Cl)c4n3)cc2O1 [Compound 1, 8-Chloro-N-(2,2-difluorobenzo[d][1,3]dioxol-5-yl)quinolin-2-amine]
fold induction at 1 µM (miR-124): 3.9

FC1(F)Oc2ccc(Nc3ccc4cccc(Cl)c4n3)cc2O1 [crystal form A, 8-chloro-N-(2,2-difluorobenzo[d][1,3]dioxol-5-yl)quinolin-2-amine]
Purity (%) ([1]; 25 °C, 60% RH): 100.0%
Crystal form ([1]; 25 °C, 60% RH): Did not change
physical and chemical stability (conclusion) ([1]; 25 °C/60% RH and 40 °C/75% RH, 6 months): both good physical stability and good chemical stability
Purity (%) ([1]; 40 °C, 75% RH): 100.0%
Crystal form ([1]; 40 °C, 75% RH): Did not change
remaining at 720 h ([1]; solid storage, 25 °C, 60% RH, 1M, read-out: Purity (%)): 100%
remaining at 1440 h ([1]; solid storage, 25 °C, 60% RH, 2M, read-out: Purity (%)): 100%
remaining at 2160 h ([1]; solid storage, 25 °C, 60% RH, 3M, read-out: Purity (%)): 100%
remaining at 4320 h ([1]; solid storage, 25 °C, 60% RH, 6M, read-out: Purity (%)): 100%
Color and state ([2]; 40°C, 5 days): Off-white solid
Crystal form ([2]; 40°C, 5 days): Did not change
Color and state ([2]; 40°C, 10 days): Off-white solid
Crystal form ([2]; 40°C, 10 days): Did not change
Color and state ([2]; 40°C, 30 days): Off-white solid
Crystal form ([2]; 40°C, 30 days): Did not change
Color and state ([2]; 60°C, 5 days): Off-white solid
Crystal form ([2]; 60°C, 5 days): Did not change
Color and state ([2]; 60°C, 10 days): Off-white solid
Crystal form ([2]; 60°C, 10 days): Did not change
Color and state ([2]; 60°C, 30 days): Off-white solid
Crystal form ([2]; 60°C, 30 days): Did not change
Color and state ([2]; 75% RH, 5 days): Off-white solid
Crystal form ([2]; 75% RH, 5 days): Did not change
Color and state ([2]; 75% RH, 10 days): Off-white solid
Crystal form ([2]; 75% RH, 10 days): Did not change
Color and state ([2]; 75% RH, 30 days): Off-white solid
Crystal form ([2]; 75% RH, 30 days): Did not change
Color and state ([2]; 92.5% RH, 5 days): Off-white solid
Crystal form ([2]; 92.5% RH, 5 days): Did not change
Color and state ([2]; 92.5% RH, 10 days): Off-white solid
Crystal form ([2]; 92.5% RH, 10 days): Did not change
Color and state ([2]; 92.5% RH, 30 days): Off-white solid
Crystal form ([2]; 92.5% RH, 30 days): Did not change
Color and state ([2]; Initial, 0 days): Off-white solid
Crystal form ([2]; Initial, 0 days): Crystal form A
Purity (%) ([2]; Initial, 0 days): 100.0%
Color and state [2, 4]: Off-white solid
Crystal form [2, 4]: Did not change
Color and state [2, 5]: Off-white solid
Crystal form [2, 5]: Did not change
Color and state [2, 6]: Off-white solid
Crystal form [2, 6]: Did not change
physical and chemical stability (conclusion) ([2]; light exposure, 40 °C and 60 °C, 75% and 92.5% humidity, 30 days): both good physical stability and good chemical stability
remaining at 120 h ([2]; 40°C, 5 days): 100%
remaining at 240 h ([2]; 40°C, 10 days): 100%
remaining at 720 h ([2]; 40°C, 30 days): 100%
remaining at 120 h ([2]; 60°C, 5 days): 100%
remaining at 240 h ([2]; 60°C, 10 days): 100%
remaining at 720 h ([2]; 60°C, 30 days): 100%
remaining at 120 h ([2]; 75% RH, 5 days): 100%
remaining at 240 h ([2]; 75% RH, 10 days): 100%
remaining at 720 h ([2]; 75% RH, 30 days): 100%
remaining at 120 h ([2]; 92.5% RH, 5 days): 100%
remaining at 240 h ([2]; 92.5% RH, 10 days): 100%
remaining at 720 h ([2]; 92.5% RH, 30 days): 100%
remaining at 120 h [2, 4]: 100%
remaining at 240 h [2, 5]: 100%
remaining at 720 h [2, 6]: 99.9%
hygroscopic weight gain ([3]; accelerated experimental conditions (70% RH)): about 0.02%
crystal form re-identified after DVS testing ([3]; after DVS testing): the crystal form did not change
hygroscopic weight gain ([3]; extreme conditions (90% RH)): about 0.18%
hygroscopic weight gain ([3]; normal storage conditions (room temperature and 60% RH)): about 0.02%
